Article PMC4401541, “Structure- and Ligand-Based Virtual Screening Identifies New Scaffolds for Inhibitors of the Oncoprotein MDM2” (PLoS ONE, 2015)
In brackets after ≈: the same amount, converted by molar mass.

Tests used:
[1] = molecular target: T1, MDM2-N (Homo sapiens, UniProt Q00987); assay: Competitive capillary electrophoresis (CE) assay, compound vs fluorescently labelled p53 peptide (p53-F); format: binding; details: for inhibition at 300 µM: read-out: CE % inhibition at 300 μM; for activity in the assays: CE and FP screening assays
Method: Capillary electrophoresis (CE) is an analytical technique used to study the interaction between biomacromolecules. In CE, electrophoresis is carried out in the interior of a narrow capillary. The technique separates ions based on their electrophoretic mobility with the use of applied voltage. The electrophoretic mobility is dependent on the charge of the molecule, the viscosity and the molecular size. CE is performed using a high voltage to produce a high resolution profile with a short migration time to separate numerous analytes. […] The assay provides a high sensitivity through the use of a Laser Induced Fluorescence (LIF) detector to enable the detection of weak binding fragments. This enables the interaction assay to be performed with a low labelled probe concentration and allows compounds to be screened at low concentrations. A competitive CE assay was used to detect competition between compounds and fluorescently labelled p53 peptide (p53-F) in MDM2-N/p53 binding site. The injection sample contained carboxyfluorescein (internal standard (10pM)) and p53-F (500pM) in TAPS/Tris (1mM) pH 8.0, DTT (1mM). […] After injection of the sample, a voltage of 10kV was applied and separation was carried out for 6.5min.
TR is the migration time of p53-F peak.
TL is the migration time of p53-F peak in the presence of MDM2-N + compound.

[2] = molecular target: T1, MDM2-N; assay: Fluorescence polarization (FP) competition assay with p53-F; format: binding; details: read-out: FP % inhibition at 700 μM; compound 700 μM; MDM2-N 500 nM; p53-F 2 nM
Method: Fluorescence polarization experiments were performed with a LJL Biosystems Analyst multi-plate reader in 50mM HEPES pH 7.5, 100mM NaCl, 1mM DTT. Fluorescein labelled p53 peptide (p53-F) was synthesised by Biomatiks. […] The competition experiments were carried out by mixing MDM2-N (500nM), p53-F (2nM) and test compound in black NBS plate. […] The inhibition (%) was calculated using the equation below. %Inhibition=100(AF-AL)/(AF-AU) Where: AF is the anisotropy of fully bound p53-F.
AU is the anisotropy of unbound p53-F.
AL is the anisotropy of p53-F in the presence of MDM2-N + compound.

[3] = Solubility of the fragments in assay buffer; format: physicochemical; details: aqueous buffer, read-out: Estimated solubility limit
From the text: Supplement pone.0121424.s006.docx, table 5 | column: Estimated solubility limit

[4] = test system: MDM2; details: read-out: literature IC50 value for racemic Nutlin-3; cited from earlier work

| Structure (SMILES) | inhibition at 300 µM [1] | inhibition at 700 µM [2] | activity in the assays [1] | solubility [3] | IC50 [4] |
| --- | --- | --- | --- | --- | --- |
| O=C(NCc1ccccc1)N(c1ccccc1)c1ccccc1 [Compound 19] | 42% | 18% |  |  |  |
| CCn1c(=O)c2c(nc(-n3nc(C)cc3C)n2Cc2ccc(F)cc2)n(C)c1=O [Compound 25] |  |  | inactive |  |  |
| CC1CCN(c2nc3c(c(=O)n(C)c(=O)n3C)n2CC(=O)c2ccccc2)CC1 [Compound 26] |  |  | inactive |  |  |
| O=C1N[C@@](O)(c2ccccc2)c2ccccc21 [Compound 39] | 40% | 13% |  |  |  |
| O=C1Cc2ccccc2N1 [Compound 40] | 28% | 8% |  | > 2000 µM |  |
| Oc1cccc(Nc2ccccc2)c1 [Compound 41] | 66% | 31% |  | 250 to 500 µM (≈ 46.3 to 92.6 µg/mL) |  |
| Oc1ccc(Nc2ccccc2)cc1 [Compound 42] | 52% | 60% |  | 250 to 500 µM (≈ 46.3 to 92.6 µg/mL) |  |
| c1ccc(Nc2ccccc2)cc1 [Compound 43] | 36% | 33% |  | 250 to 500 µM (≈ 42.3 to 84.6 µg/mL) |  |
| Nc1ccc(Nc2ccccc2)cc1 [Compound 44] | 30% | 8% |  | 62.5 to 125 µM (≈ 11.5 to 23 µg/mL) |  |
| O=C(O)c1ccccc1Nc1ccccc1 [Compound 45] |  |  |  | > 1000 µM |  |
